Experimental data reported in US20240247048A1 (EMORY UNIVERSITY, priority 2021, published 2024).

Key:
[1] = test system: MT5, KPC-Luc, Panc02, BXPC3, Capan-02 PDAC cell lines; test: cell viability assay (MTT) of PDAC cell lines; type: cell-based, mouse and human; conditions: 0-5 uM, 72 hours; FIG. 13E, 24a
Description: (§1) (FIG. 24A) Percentage viability of murine (MT5, KPC.Luc, Panc02) and human (Capan02, BxPC3) PDAC cell lines cultured in the presence of different concentrations ranging from 0-5 μM of ANT008 for 72 hours is plotted. Confirmation of CRISPR-Cas9 KO of VIPR2 encoding VPAC2 receptor via (FIG. 24B) western blot; (FIG. 24C) RT-PCR using primers targeting exon 9-12 downstream of targeted site and (FIG. 24D) Sanger Sequencing showing the validation of in-del mutation in exon 2. In vitro MTT assay showing (FIG. 24E) Proliferation of WT and KO cells over 72 hours; (FIG. 24F) Percent viability of wild type (WT) and VPAC2 KO (KO) Panc02 cells treated with ANT008 and ANT308 at 3 μM for 72 hours. (FIG. 24G) Tumor growth curve of WT versus KO Panc02 cells in C57BL/6 mice following subcutaneous tumor implantation. Values represent median tumor volume±95% confidence interval. (FIG. 24H) Kaplan-Meier survival plots corresponding to results in FIG. 24G. Median survival time for WT is 21 days and 28 days for VPAC2 KO. Error bars represent mean and standard deviation. *p<0.05, **p<0.01.
(§2) Cell viability assay. […] Cell viability was assessed using cell proliferation kit I from Roche (Basel, Switzerland), following the manufacturer's instructions. […] This was followed by incubation with solubilization buffer overnight and reading the absorbance at 570 nm. […]

PDAC patient T cells = test: ex vivo 9-day expansion of PDAC patient peripheral blood T cells; type: cell-based, human
Description: (FIG. 17A) Representative western blot and (FIG. 17B) quantified expression levels of VPAC1 and VPAC2; and (FIG. 17C) PD-1 and CTLA-4 in lysates of healthy human T cells expanded with plate bound human anti-CD3 antibodies for 0, 3, 6, 12, 24, 48 and 72 hours. Lower molecular weight band of 25kD shown for VPAC2-specific expression as confirmed from our VPAC2 KO model. Percentage of (FIG. 17D) CD69 expression at 24 h post activation (FIG. 17E) phosphorylation of CREB (phospho-CREB) downstream of VPAC1/2 receptor at 6 h and in CD4+ and CD8+ T cells normalized to levels in control with no peptide. PDAC patient peripheral blood T cells were expanded for 9 days with plate bound human anti-CD3 antibodies+/−ANT008 and the (FIG. 17F) percentage of Tregs was quantified using the (FIG. 17G) gating strategy shown. […] Statistical differences in FIGS. 17D and 17E were calculated via repeated measures ANOVA followed by Dunnett's post-test where each sample in the treatment group was compared to the matched sample in the control group (scrambled treated). Statistical differences in FIGS. 17F, 17H, and 17I were calculated via paired student T-test. […]
Human T cell activation and expansion. […] Cells were counted using Trypan blue dye and phenotyped via flow cytometry on day 9. […]

[2] = test system: wild type and VPAC2 KO Panc02 cells; test: MTT viability of wild type and VPAC2 KO Panc02 cells; type: cell-based, mouse; conditions: 3 uM for 72 hours; FIG. 24f
Description: as §1, §2

KPRRPYTDNYTRLRKQMAVKKYLNLILN [ANT008]
viability and growth of PDAC cell lines in vitro [1]: did not affect viability of PDAC cell lines in vitro, except a transient effect in MT5
T cells with an exhausted phenotype (co-expressing PD1 and Tim-3 or Lag-3) (PDAC patient T cells; CD4+ and CD8+ subsets, 9 days, FIG. 17h, 17i): significantly decreased
proportion of human Tregs (CD4+ CD25+ FoxP3+) (PDAC patient T cells; after 9 days of T cell expansion, FIG. 17f): significantly decreased

KPRRPYTSDYTRLRKQMAVKKYLNLILN [ANT308]
in vitro growth of VPAC2 knockout or wild-type Panc02 cells [2]: did not inhibit
